For assay [1], the target named is Beta Secretase enzyme (BACE) (Homo sapiens (Human), UniProt P56817). The assay can be described thus: In vitro enzymatic BACE FRET assay. The assay is classed as biochemical. The following applies: read-out: BACE1 Enzyme assay IC50.
For the next assay, the target named is Cathepsin D (Cat D) (Homo sapiens (Human), UniProt P07339). The assay can be described thus: In vitro enzymatic Cathepsin D (Cat D) FRET assay. In kind it is biochemical. The note with it: read-out: CatD IC50.
Chain of Cathepsin D (Cat D) (P07339 65-412, species assumed): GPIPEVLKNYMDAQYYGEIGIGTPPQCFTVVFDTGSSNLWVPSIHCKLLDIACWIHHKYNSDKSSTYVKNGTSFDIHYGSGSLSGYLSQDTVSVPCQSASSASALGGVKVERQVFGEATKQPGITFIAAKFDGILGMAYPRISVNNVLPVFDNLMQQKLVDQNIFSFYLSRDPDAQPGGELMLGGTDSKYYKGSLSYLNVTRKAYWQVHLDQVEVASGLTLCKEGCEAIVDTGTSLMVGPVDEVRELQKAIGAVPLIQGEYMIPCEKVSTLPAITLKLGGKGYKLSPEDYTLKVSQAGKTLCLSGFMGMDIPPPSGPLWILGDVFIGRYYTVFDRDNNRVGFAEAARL

Chain of Beta Secretase enzyme (BACE) (P56817 46-501): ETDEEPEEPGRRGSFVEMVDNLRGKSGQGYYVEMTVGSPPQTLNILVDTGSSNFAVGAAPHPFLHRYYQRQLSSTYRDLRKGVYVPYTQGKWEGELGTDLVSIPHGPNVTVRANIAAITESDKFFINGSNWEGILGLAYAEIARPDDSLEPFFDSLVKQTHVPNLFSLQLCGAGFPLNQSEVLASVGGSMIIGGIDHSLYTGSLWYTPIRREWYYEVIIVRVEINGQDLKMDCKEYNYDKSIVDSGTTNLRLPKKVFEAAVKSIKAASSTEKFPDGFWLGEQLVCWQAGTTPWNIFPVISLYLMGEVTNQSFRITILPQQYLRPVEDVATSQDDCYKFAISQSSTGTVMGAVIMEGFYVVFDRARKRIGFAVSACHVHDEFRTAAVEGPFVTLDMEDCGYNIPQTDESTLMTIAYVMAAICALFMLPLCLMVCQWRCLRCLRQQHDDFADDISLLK

For the compound `NC1=N[C@@](c2cc(N[C@H]3CCCc4cc(Br)cnc43)ccc2F)(C(F)F)[C@H]2C[C@H]2O1` (mixture of isomers) [Example 382, (1R,5S,6R)-5-(5-(((R)-3-bromo-5,6,7,8-tetrahydroquinolin-8-yl)amino)-2-fluorophenyl)-5-(difluoromethyl)-2-oxa-4-azabicyclo[4.1.0]hept-3-en-3-amine and (1R,5S,6R)-5-(5-(((S)-3-bromo-5,6,7,8-tetrahydroquinolin-8-yl)amino)-2-fluorophenyl)-5-(difluoromethyl)-2-oxa-4-azabicyclo[4.1.0]hept-3-en-3-amine], the results for the IC50 (in assay [1]; on Cathepsin D (Cat D)) were 3070 nM and 263 µM, respectively. The corresponding values for `NC1=N[C@@](c2cc(N[C@@H]3CCc4cc(Br)ccc43)ccc2F)(C(F)F)[C@H]2C[C@H]2O1.NC1=N[C@@](c2cc(N[C@H]3CCc4cc(Br)ccc43)ccc2F)(C(F)F)[C@H]2C[C@H]2O1` (mixture of isomers) [Example 384, (1R,5S,6R)-5-(5-(((R)-5-bromo-2,3-dihydro-1H-inden-1-yl)amino)-2-fluorophenyl)-5-(difluoromethyl)-2-oxa-4-azabicyclo[4.1.0]hept-3-en-3-amine and (1R,5S,6R)-5-(5-(((S)-5-bromo-2,3-dihydro-1H-inden-1-yl)amino)-2-fluorophenyl)-5-(difluoromethyl)-2-oxa-4-azabicyclo[4.1.0]hept-3-en-3-amine] are 315 nM and 82.5 µM. In the case of `NC1=N[C@@](c2cc(N[C@H](c3ccc(Cl)cn3)C(F)(F)F)ccc2F)(C(F)F)[C@H]2C[C@H]2O1` (mixture of isomers) [Example 422, (1R,5S,6R)-5-(5-(((R)-1-(5-chloropyridin-2-yl)-2,2,2-trifluoroethyl)amino)-2-fluorophenyl)-5-(difluoromethyl)-2-oxa-4-azabicyclo[4.1.0]hept-3-en-3-amine and (1R,5S,6R)-5-(5-(((S)-1-(5-chloropyridin-2-yl)-2,2,2-trifluoroethyl)amino-2-fluorophenyl)-5-(difluoromethyl)-2-oxa-4-azabicyclo[4.1.0]hept-3-en-3-amine], the IC50 in assay [1] worked out at 5240 nM; at Cathepsin D (Cat D) it was 68.2 µM. For `Cc1cc(C#N)cnc1C(=O)Nc1cc(F)c(Cl)c([C@]2(CF)N=C(N)O[C@H]3C[C@H]32)c1` (racemic) [Example 137, N-(3-((1R/S,5S/R,6R/S)-3-amino-5-(fluoromethyl)-2-oxa-4-azabicyclo[4.1.0]hept-3-en-5-yl)-4-chloro-5-fluorophenyl)-5-cyano-3-methylpicolinamide], the IC50 stood at 44.8 nM in assay [1] and 539 µM at Cathepsin D (Cat D). The corresponding values for `CC#CCOc1cnc(C(=O)Nc2ccc(Cl)c([C@]3(C(F)F)N=C(N)O[C@H]4C[C@H]43)c2)cn1` (racemic) [Example 210, N-(3-([1(R,S),5(S,R),6(R,S)]-3-amino-5-(difluoromethyl)-2-oxa-4-azabicyclo[4.1.0]hept-3-en-5-yl)-4-chlorophenyl)-5-(but-2-yn-1-yloxy)pyrazine-2-carboxamide] are 3.9 nM and 569 µM. Take `C#CCOc1cnc(C(=O)Nc2ccc(Cl)c([C@]3(C(F)F)N=C(N)O[C@H]4C[C@H]43)c2)cn1` (racemic) [Example 219, N-(3-((1(S,R),5(R,S),6(S,R))-3-amino-5-(difluoromethyl)-2-oxa-4-azabicyclo[4.1.0]hept-3-en-5-yl)-4-chlorophenyl)-5-(prop-2-yn-1-yloxy)pyrazine-2-carboxamide]: the 50% inhibitory concentration (IC50) in assay [1] stood at 6.3 nM; on Cathepsin D (Cat D), 65.8 µM. On to `Cc1cc(NC(=O)c2ccc(Cl)cn2)cc([C@@]2(C(F)F)N=C(N)O[C@@H]3C[C@@H]32)c1F` [Example 121, N-(3-((1R,5S,6R)-3-amino-5-(difluoromethyl)-2-oxa-4-azabicyclo[4.1.0]hept-3-en-5-yl)-4-fluoro-5-methylphenyl)-5-chloropicolinamide], for which, at Cathepsin D (Cat D), the IC50 was 206 µM. On the same count and under the same terms, then `Cc1cc(NC(=O)c2ccc(Cl)cn2)cc([C@@]2(C(F)F)N=C(N)O[C@@H]3C[C@@H]32)c1F` [Example 123, N-(3-((1R,5S,6R)-3-amino-5-(difluoromethyl)-2-oxa-4-azabicyclo[4.1.0]hept-3-en-5-yl)-4-fluoro-5-methylphenyl)-5-chloropicolinamide], with 257 µM; and `Cc1cc(NC(=O)c2ccc(Cl)cn2)cc([C@]2(C(F)F)N=C(N)O[C@H]3C[C@H]32)c1F` [Example 124, N-(3-((1 S,5R,6S)-3-amino-5-(difluoromethyl)-2-oxa-4-azabicyclo[4.1.0]hept-3-en-5-yl)-4-fluoro-5-methylphenyl)-5-chloropicolinamide], with 1230 µM.

As to `Cc1cc(C#N)cnc1C(=O)Nc1cc(C)c(F)c([C@@]2(C(F)F)N=C(N)O[C@@H]3C[C@@H]32)c1` [Example 132, N-(3-((1R,5S,6R)-3-amino-5-(difluoromethyl)-2-oxa-4-azabicyclo[4.1.0]hept-3-en-5-yl)-4-fluoro-5-methylphenyl)-5-cyano-3-methylpicolinamide], the IC50 at Cathepsin D (Cat D) is 725 µM. The same measure, in the same setting: then `COc1c(F)cc(NC(=O)c2ccc(Cl)cn2)cc1[C@@]1(CF)N=C(N)O[C@@H]2C[C@@H]21` [Example 145, N-(3-((1R,5S,6R)-3-amino-5-(fluoromethyl)-2-oxa-4-azabicyclo[4.1.0]hept-3-en-5-yl)-5-fluoro-4-methoxyphenyl)-5-chloropicolinamide], with 220 µM; and `COc1c(F)cc(NC(=O)c2ccc(Cl)cn2)cc1[C@]1(CF)N=C(N)O[C@H]2C[C@H]21` [Example 146, N-(3-((1S,5R,6S)-3-amino-5-(fluoromethyl)-2-oxa-4-azabicyclo[4.1.0]hept-3-en-5-yl)-5-fluoro-4-methoxyphenyl)-5-chloropicolinamide], with 768 µM; and `C#C[C@@H](C)Oc1cnc(C(=O)Nc2ccc(F)c([C@@]3(C(F)F)N=C(N)O[C@@H]4C[C@@H]43)c2)cn1` [Example 148, N-(3-((1R,5S,6R)-3-amino-5-(difluoromethyl)-2-oxa-4-azabicyclo[4.1.0]hept-3-en-5-yl)-4-fluorophenyl)-5-((R)-but-3-yn-2-yloxy)pyrazine-2-carboxamide], with 849 µM.

As for `NC1=N[C@@](c2cc(NC(=O)c3coc(CF)n3)ccc2F)(C(F)F)[C@H]2C[C@H]2O1` [Example 168, N-(3-((1R,5S,6R)-3-amino-5-(difluoromethyl)-2-oxa-4-azabicyclo[4.1.0]hept-3-en-5-yl)-4-fluorophenyl)-2-(fluoromethyl)oxazole-4-carboxamide], on Cathepsin D (Cat D), the half-inhibitory concentration (IC50) is 56.8 µM.

On to `C#CCOc1ccc(C(=O)Nc2ccc(F)c([C@@]3(CF)N=C(N)O[C@@H]4C[C@@H]43)c2)nc1` [Example 205, N-(3-((1R,5S,6R)-3-amino-5-(fluoromethyl)-2-oxa-4-azabicyclo[4.1.0]hept-3-en-5-yl)-4-fluorophenyl)-5-(prop-2-yn-1-yloxy)picolinamide], for which, on Cathepsin D (Cat D), the IC50 was 821 µM.

In the case of `Cc1ccc(NC(=O)c2ccc(C#N)cn2)cc1[C@@]1(C(F)F)N=C(N)O[C@@H]2C[C@@H]21` [Example 269, N-(3-((1R,5S,6R)-3-amino-5-(difluoromethyl)-2-oxa-4-azabicyclo[4.1.0]hept-3-en-5-yl)-4-methylphenyl)-5-cyanopicolinamide], the IC50 at Cathepsin D (Cat D) was 716 µM. Turning to `Cc1cc(NC(=O)c2ncc(C#N)cn2)cc([C@@]2(C(F)F)N=C(N)O[C@@H]3C[C@@H]32)c1F` [Example 298, N-(3-((1R,5S,6R)-3-amino-5-(difluoromethyl)-2-oxa-4-azabicyclo[4.1.0]hept-3-en-5-yl)-4-fluoro-5-methylphenyl)-5-cyanopyrimidine-2-carboxamide], at Cathepsin D (Cat D), the IC50 was over 400 µM. With `C#Cc1ccc(C(=O)Nc2ccc(F)c([C@@]3(C(F)F)N=C(N)O[C@@H]4C[C@@H]43)c2)nc1` [Example 313, N-(3-((1R,5S,6R)-3-amino-5-(difluoromethyl)-2-oxa-4-azabicyclo[4.1.0]hept-3-en-5-yl)-4-fluorophenyl)-5-ethynylpicolinamide], the IC50 at Cathepsin D (Cat D) was found to be 467 µM.

Regarding `NC1=N[C@@](c2cc(NC3(c4ccc(Cl)cn4)COC3)ccc2F)(C(F)F)[C@H]2C[C@H]2O1` [Example 332, (1R,5S,6R)-5-(5-((3-(5-chloropyridin-2-yl)oxetan-3-yl)amino)-2-fluorophenyl)-5-(difluoromethyl)-2-oxa-4-azabicyclo[4.1.0]hept-3-en-3-amine], the IC50 at Cathepsin D (Cat D) worked out at 163 µM.

As to `NC1=N[C@@](c2cc(Nc3ncc(F)c4cc(Cl)cnc34)ccc2F)(C(F)F)[C@H]2C[C@H]2O1` [Example 361, (1R,5S,6R)-5-(5-((3-chloro-5-fluoro-1,7-naphthyridin-8-yl)amino)-2-fluorophenyl)-5-(difluoromethyl)-2-oxa-4-azabicyclo[4.1.0]hept-3-en-3-amine], the 50% inhibitory concentration (IC50) at Cathepsin D (Cat D) is over 400 µM. As to `N=C1N[C@](CF)(c2cc(-c3cncc(F)c3)c(CO)cc2F)[C@H]2CC2O1` (stereo partly drawn) [Example 433, (5-fluoro-4-([(1R,S),(5S,R),(6R,S)]-5-(fluoromethyl)-3-imino-2-oxa-4-azabicyclo[4.1.0]heptan-5-yl)-2-(5-fluoropyridin-3-yl)phenyl)methanol], the IC50 in assay [1] came to 23100 nM.

As to `COC(=O)c1ccc(C(=O)Nc2cc(F)c(F)c([C@]3(C(F)F)N=C(N)O[C@H]4C[C@H]43)c2)nc1` [Example 436, methyl 6-((3-((1S,5R,6S)-3-amino-5-(difluoromethyl)-2-oxa-4-azabicyclo[4.1.0]hept-3-en-5-yl)-4,5-difluorophenyl)carbamoyl)nicotinate], on Cathepsin D (Cat D), the half-maximal inhibitory concentration (IC50) was found to be 343 µM. Turning to “(R)-4-((3-((1R,5S,6R)-3-amino-5-(difluoromethyl)-2-oxa-4-azabicyclo[4.1.0]hept-3-en-5-yl)-4-fluorophenyl)amino)chroman-7-carbonitrile and (S)-4-((3-((1R,5S,6R)-3-amino-5-(difluoromethyl)-2-oxa-4-azabicyclo[4.1.0]hept-3-en-5-yl)-4-fluorophenyl)amino)chroman-7-carbonitrile [Example 383]”, the IC50 in assay [1] came to 968 nM.

The record behind these values is patent publication US9085576B2 (AMGEN INC., priority 2013, dated 2015).
